Assay results: ChEMBL document CHEMBL1137154, “Phenylethanolamine N-methyltransferase inhibition: re-evaluation of kinetic data” (Bioorg Med Chem Lett, 2004)

Target: T1, Phenylethanolamine N-methyltransferase (Homo sapiens, UniProt P11086)
T1 sequence (P11086 whole entry): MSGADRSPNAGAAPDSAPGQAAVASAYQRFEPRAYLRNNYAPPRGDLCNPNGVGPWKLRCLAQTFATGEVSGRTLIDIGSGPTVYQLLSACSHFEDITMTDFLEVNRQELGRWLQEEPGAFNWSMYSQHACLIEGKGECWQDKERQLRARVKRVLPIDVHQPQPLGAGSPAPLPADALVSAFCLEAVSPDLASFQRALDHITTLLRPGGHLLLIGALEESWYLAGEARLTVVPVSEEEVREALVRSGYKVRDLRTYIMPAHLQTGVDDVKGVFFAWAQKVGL
Assay: Inhibitory binding affinity for phenylethanolamine N-methyl-transferase (PNMT)

SMILES: CC(N)c1cccc(Cl)c1Cl (stereo unspecified)
- Ki: 90 nM
